pIC50: −log10 of the molar value. Structures can show the parent of a compound that is named as a salt. Where two headings read alike, the source gives them in different places.
Columns and labels:
[1] = target: T1, Full-length PRMT5 enzyme (NCBI Reference sequence NP_006100.2) co-expressed with His6-MEP50 (Homo sapiens (Human), UniProt O14744); experiment: PRMT5 Biochemical Assay; conditions: 200 nM peptide substrate, 1 μM S-Adenosyl methionine, 4 hours at 37° C., Transcreener EPIGEN fluorescence polarisation
T1 sequence (O14744 whole entry): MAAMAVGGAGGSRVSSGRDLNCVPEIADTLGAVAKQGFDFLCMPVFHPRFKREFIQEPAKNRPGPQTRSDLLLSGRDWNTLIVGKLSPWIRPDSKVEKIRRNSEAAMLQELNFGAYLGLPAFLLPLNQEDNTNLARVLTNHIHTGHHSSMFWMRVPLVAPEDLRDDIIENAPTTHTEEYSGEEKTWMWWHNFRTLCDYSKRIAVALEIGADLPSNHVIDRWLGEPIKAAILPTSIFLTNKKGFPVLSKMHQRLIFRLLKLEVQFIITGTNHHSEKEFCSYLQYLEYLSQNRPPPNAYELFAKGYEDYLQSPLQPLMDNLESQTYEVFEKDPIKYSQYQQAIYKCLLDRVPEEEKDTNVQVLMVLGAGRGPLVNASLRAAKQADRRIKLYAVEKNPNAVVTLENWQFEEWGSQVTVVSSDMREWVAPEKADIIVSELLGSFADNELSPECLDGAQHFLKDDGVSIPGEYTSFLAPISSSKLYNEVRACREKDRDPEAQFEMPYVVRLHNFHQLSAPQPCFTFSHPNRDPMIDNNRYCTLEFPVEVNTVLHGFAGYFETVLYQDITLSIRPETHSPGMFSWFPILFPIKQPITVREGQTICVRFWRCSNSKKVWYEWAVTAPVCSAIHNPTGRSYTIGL
T1 sequence (Q9BQA1 whole entry partner): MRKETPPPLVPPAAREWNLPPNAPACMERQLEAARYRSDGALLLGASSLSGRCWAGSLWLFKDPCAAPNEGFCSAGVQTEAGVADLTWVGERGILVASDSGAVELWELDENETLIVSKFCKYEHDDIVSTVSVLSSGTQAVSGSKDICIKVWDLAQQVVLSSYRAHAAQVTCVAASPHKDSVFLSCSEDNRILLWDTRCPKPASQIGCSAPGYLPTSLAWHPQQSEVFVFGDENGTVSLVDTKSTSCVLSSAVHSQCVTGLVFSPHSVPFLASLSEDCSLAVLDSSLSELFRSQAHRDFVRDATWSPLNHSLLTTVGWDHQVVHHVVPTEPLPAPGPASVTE
Method: Compounds of the invention may be tested for in vitro activity in the following assay: A histone H4 derived peptide is used as substrate (amino acid sequence: […]N H2). Full-length PRMT5 enzyme (NCBI Reference sequence NP_006100.2) was co-expressed with His6-MEP50 in insect cells and purified via Nickel immobilized metal affinity and gel filtration chromatography (“the enzyme”).
The 6 μL assay reactions are run in Greiner brand black 384-well low volume plates. All reactions contained assay buffer (phosphate buffered saline, 0.01% (v/v) Tween-20, 0.01% (w/v) albumin from chicken egg white, 1 mM dithiothreitol, 200 nM peptide substrate, 1 μM S-Adenosyl methionine, and 15 ng/reaction enzyme, with the enzyme being omitted from negative control reactions. Compounds were added in a volume of 100 nL from dilution series prepared in DMSO, positive and negative control reactions receiving the same volume DMSO without compound. The plates were sealed with adhesive seals and incubated for 4 hours at 37° C. Reaction progress was measured using the Transcreener™ EPIGEN methyltransferase assay (BellBrook Labs, Madison, Wis.) as recommended by the manufacturer. To each reaction 2 μL detection mix were added, containing coupling enzymes, fluorescence polarisation tracer, and AMP antibody. Plates were incubated for 90 min before being read on a PerkinElmer EnVision™ plate reader in fluorescence polarisation mode. IC50 values were obtained from the raw readings by calculating percent inhibition (%1) for each reaction relative to controls on the same plate (% I=(I−CN)/(CP−CN) where CN/CP are the averages of the negative/positive reactions, respectively), then fitting the % I data vs. compound concentration [I] to % I=(A+((B−A)/(1+((C/[I])^D)))) where A is the lower asymptote, B is the upper asymptote, C is the IC50 value, and D is the slope.

[2] = target: T1, Full-length PRMT5 enzyme (NCBI Reference sequence NP_006100.2) co-expressed with His6-MEP50; experiment: Revised PRMT5 Biochemical Assay; conditions: 1 μM peptide substrate, 1 μM S-Adenosyl methionine, 4 hours at 37 degree Celsius, Transcreener EPIGEN fluorescence polarisation
How it was run: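 Full-length PRMT5 co-expressed with His6-MEP50 in insect cells (15 ng/reaction) was run with 1 μM H4-derived peptide and 1 μM SAM in PBS, 0.01% Tween-20, 0.01% albumin and 1 mM DTT for 4 h at 37 °C. Product was read by Transcreener EPIGEN fluorescence polarisation, and IC50 came from a 4-parameter fit.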

[3] = system: symmetrical dimethylation of arginine (Di-Methyl Histone H4R3) in cell line TE11; experiment: PRMT5 Biomarker Assay (symmetrical dimethylation of arginine, Di-Methyl Histone H4R3 ELISA); format: cell-based; conditions: Homo sapiens, TE-11; TE11 cells, 72 h incubation, EpiQuik ELISA, corrected for total protein
Method: (§1) Compounds of the invention may be tested for potency to inhibit symmetrical dimethylation of arginine in the following assay:
The cell line TE11 was seeded at a density of 12,000 cells per well in 96 well tissue culture plates in DME medium and 10% foetal bovine serum, and allowed to adhere overnight under standard culture conditions (37° C., 5% CO2). Compound dilutions prepared in DMSO were added to the medium, with negative control wells reserved for treatment with DMSO only and positive controls receiving a potent PRMT5 inhibitor. The concentration of the inhibitor had been previously determined to give maximum inhibition of the methylation. After incubation for 72 h, cells were washed twice in ice-cold PBS, lysed in lysis buffer (20 mM Tris pH 7.4, 135 mM NaCl, 1.5 mM MgCl2, 1 mM EGTA, 10% glycerol and 1% Triton-X100), centrifuged at 15,000×g and the supernatants collected for subsequent analysis. The methylation level was determined using the EpiQuik™ Global Di-Methyl Histone H4R^3 Quantification ELISA Kit (Epigentek, Farmingdale, N.Y.) as per the manufacturer's recommendations; in parallel the total protein amount in the lysate was quantified using a Lowry protein assay. […]

[4] = system: symmetrical dimethylation of arginine (Di-Methyl Histone H4 Arginine 3) in cell line TE11; experiment: Revised PRMT5 Biomarker Assay (Di-Methyl Histone H4 Arginine 3 immunofluorescence); format: cell-based; conditions: Homo sapiens, TE-11, TE11 cells, 72 hours
Method: as §1
The cell line TE11 was seeded at a density of 6,000 cells per well in 96 well optical quality tissue culture plates in DME medium and 10% foetal bovine serum, and allowed to adhere for 5 hours under standard culture conditions (37 degree Celsius, 5% CO2). […] After incubation for 72 hours, the cells were fixed with 3.7% formaldehyde in PBS for 30 minutes at room temperature, washed with phosphate buffer saline and blocked with Odyssey blocking buffer (LI-COR, Lincoln, Nebr.). Rabbit anti-Di-Methyl Histone H4 Arginine 3 specific antibody (Epigentek) in Odyssey blocking buffer was added and incubated for 14 hours at 4 degree Celsius. […] Alternatively, the plates were imaged on a PerkinElmer Phenix high content imaging platform. […] The resulting mean intensity per cell was directly converted to percent inhibition as outlined above (IC50, imager based).

| SMILES | pIC50 [1] | pIC50 [2] | pIC50 [3] | pIC50 ([4]; PerkinElmer Phenix high content imaging, mean intensity per cell, read-out: IC50 - image based) | pIC50 ([4]; PerkinElmer Envision fluorescence intensity, corrected for Hoechst 33342, read-out: IC50 - plate-reader based) |
| --- | --- | --- | --- | --- | --- |
| O=C(NCC(O)CC1Cc2ccccc2CN1)c1ccc(C(=O)N2CCOCC2)cc1 (stereo not shown) [Example 1, N-(2-Hydroxy-3-(1,2,3,4-tetrahydroisoquinolin-3-yl)propyl)-4-(morpholine-4-carbonyl)benzamide] | 5.33 |  | 6.02 |  |  |
| CCOc1cc(C(=O)N2C3CCC2COC3)ccc1C(=O)NC[C@@H](O)[C@@H]1Cc2ccc(C)cc2CN1 [Example 108, 4-(3-Oxa-8-azabicyclo[3.2.1]octane-8-carbonyl)-2-ethoxy-N—((R)-2-hydroxy-2-((S)-7-methyl-1,2,3,4-tetrahydroisoquinolin-3-yl)ethyl)benzamide] |  | 7.77 |  |  | 9.00 |
| COC(=O)N1CCC(Oc2ccc(C(=O)NC[C@@H](O)[C@@H]3Cc4ccccc4CN3)cn2)CC1 [Example 100, Methyl 4-((5-(((R)-2-hydroxy-2-((S)-1,2,3,4-tetrahydroisoquinolin-3-yl)ethyl)carbamoyl)pyridin-2-yl)oxy)piperidine-1-carboxylate] |  | 7.18 |  | 7.96 |  |

Further lines, with some results ahead:

| pIC50 [1] | pIC50 [2] | pIC50 [3] | pIC50 ([4]; PerkinElmer Phenix high content imaging, mean intensity per cell, read-out: IC50 - image based) | SMILES | pIC50 ([4]; PerkinElmer Envision fluorescence intensity, corrected for Hoechst 33342, read-out: IC50 - plate-reader based) |
| --- | --- | --- | --- | --- | --- |
| 4.66 | 4.67 |  |  | O=C(NC[C@H](O)[C@H]1Cc2ccccc2CN1)c1ccc(C(=O)N2CCOCC2)cc1 [Example 53, N—((S)-2-hydroxy-2-((R)-1,2,3,4-tetrahydroisoquinolin-3-yl)ethyl)-4-(morpholine-4-carbonyl)benzamide hydrochloride] |  |
| 6.12 |  | 8.14 |  | O=C(NCC(O)C1Cc2ccccc2CN1)c1ccc(C(=O)N2CCOCC2)cc1 (stereo not shown) [Example 2, N-(2-hydroxy-2-(1,2,3,4-tetrahydroisoquinolin-3-yl)ethyl)-4-(morpholine-4-carbonyl)benzamide] |  |

— US10494376B2, “Tetrahydroisoquinoline derived PRMT5-inhibitors” (CTXT PTY LTD, priority 2014, dated 2019)
